Laboratory results taken from publication PMC8222254, “Self-assembly of an anion receptor with metal-dependent kinase inhibition and potent in vitro anti-cancer properties” (Nature Communications, 2021).
“And” between values parts separate entries of the source, which are not always exact repeats. Identical values can stand only once.

Experiments:
Test in all cases: Kinase inhibition screen, cell-free 33P ATP assay at 10 μM
Format in all cases: biochemical
[1] = target: 140 purified human kinases (Homo sapiens, UniProt Q9H0K1)
Sequence of 140 purified human kinases (Homo sapiens, UniProt Q9H0K1) (Q9H0K1 whole entry): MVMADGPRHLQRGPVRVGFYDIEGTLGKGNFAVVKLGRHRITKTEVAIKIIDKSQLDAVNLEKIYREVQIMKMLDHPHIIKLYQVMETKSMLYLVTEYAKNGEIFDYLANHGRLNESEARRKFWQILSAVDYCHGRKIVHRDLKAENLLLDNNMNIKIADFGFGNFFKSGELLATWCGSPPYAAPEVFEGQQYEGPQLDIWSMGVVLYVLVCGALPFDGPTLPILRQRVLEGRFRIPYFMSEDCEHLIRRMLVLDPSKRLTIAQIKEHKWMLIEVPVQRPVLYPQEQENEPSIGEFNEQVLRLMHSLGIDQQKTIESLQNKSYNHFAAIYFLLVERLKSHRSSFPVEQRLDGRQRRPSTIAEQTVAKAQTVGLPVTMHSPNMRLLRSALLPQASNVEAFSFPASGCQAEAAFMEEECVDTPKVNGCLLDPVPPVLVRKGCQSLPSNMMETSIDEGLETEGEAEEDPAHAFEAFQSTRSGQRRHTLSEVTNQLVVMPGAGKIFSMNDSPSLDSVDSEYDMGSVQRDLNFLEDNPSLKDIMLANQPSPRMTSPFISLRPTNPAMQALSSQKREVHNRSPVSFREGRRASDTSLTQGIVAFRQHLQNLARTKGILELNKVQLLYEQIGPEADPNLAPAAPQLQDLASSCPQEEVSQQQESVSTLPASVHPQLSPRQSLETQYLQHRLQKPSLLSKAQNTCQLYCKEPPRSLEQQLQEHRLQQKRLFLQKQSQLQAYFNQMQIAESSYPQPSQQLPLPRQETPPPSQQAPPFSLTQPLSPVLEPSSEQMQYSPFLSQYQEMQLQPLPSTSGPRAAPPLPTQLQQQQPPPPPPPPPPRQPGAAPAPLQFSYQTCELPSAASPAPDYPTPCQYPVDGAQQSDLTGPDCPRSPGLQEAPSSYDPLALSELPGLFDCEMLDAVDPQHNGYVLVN
Procedure: (§1) [L2Cu3]^6+ and [L2Zn3]^6+ were submitted to the MRC Protein Phosphorylation and Ubiquitination Unit International Centre for Kinase Profiling (University of Dundee) and tested in duplicate (at 10 μM) against a series of 140 purified human kinases in a cell-free kinase assay using ^33P ATP[55],[56]. The kinase gene IDs from the screen were then translated into common IDs (HGNC symbol) using biomaRt package[57],[58] in R[59] and R Studio[60] and used as input to the KinMap programme.

[2] = target: T1, 140 purified human kinases (Homo sapiens, UniProt Q13188)
T1 sequence (Q13188 1-491): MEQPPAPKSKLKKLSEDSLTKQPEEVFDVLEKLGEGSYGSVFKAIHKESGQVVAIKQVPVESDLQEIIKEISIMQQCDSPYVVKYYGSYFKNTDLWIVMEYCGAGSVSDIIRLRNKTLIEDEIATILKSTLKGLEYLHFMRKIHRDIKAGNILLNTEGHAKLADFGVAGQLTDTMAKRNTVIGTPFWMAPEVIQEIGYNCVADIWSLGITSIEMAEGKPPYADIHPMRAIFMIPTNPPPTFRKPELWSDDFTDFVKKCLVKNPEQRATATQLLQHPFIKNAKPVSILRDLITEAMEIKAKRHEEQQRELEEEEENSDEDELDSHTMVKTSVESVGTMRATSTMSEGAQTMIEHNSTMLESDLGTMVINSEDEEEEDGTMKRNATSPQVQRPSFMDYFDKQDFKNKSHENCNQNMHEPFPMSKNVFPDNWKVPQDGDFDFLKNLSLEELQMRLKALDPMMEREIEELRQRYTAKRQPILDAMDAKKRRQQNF
Procedure: as §1

[3] = target: 140 purified human kinases (Homo sapiens, UniProt P06213); details: IR
Sequence of 140 purified human kinases (Homo sapiens, UniProt P06213) (P06213 28-1382): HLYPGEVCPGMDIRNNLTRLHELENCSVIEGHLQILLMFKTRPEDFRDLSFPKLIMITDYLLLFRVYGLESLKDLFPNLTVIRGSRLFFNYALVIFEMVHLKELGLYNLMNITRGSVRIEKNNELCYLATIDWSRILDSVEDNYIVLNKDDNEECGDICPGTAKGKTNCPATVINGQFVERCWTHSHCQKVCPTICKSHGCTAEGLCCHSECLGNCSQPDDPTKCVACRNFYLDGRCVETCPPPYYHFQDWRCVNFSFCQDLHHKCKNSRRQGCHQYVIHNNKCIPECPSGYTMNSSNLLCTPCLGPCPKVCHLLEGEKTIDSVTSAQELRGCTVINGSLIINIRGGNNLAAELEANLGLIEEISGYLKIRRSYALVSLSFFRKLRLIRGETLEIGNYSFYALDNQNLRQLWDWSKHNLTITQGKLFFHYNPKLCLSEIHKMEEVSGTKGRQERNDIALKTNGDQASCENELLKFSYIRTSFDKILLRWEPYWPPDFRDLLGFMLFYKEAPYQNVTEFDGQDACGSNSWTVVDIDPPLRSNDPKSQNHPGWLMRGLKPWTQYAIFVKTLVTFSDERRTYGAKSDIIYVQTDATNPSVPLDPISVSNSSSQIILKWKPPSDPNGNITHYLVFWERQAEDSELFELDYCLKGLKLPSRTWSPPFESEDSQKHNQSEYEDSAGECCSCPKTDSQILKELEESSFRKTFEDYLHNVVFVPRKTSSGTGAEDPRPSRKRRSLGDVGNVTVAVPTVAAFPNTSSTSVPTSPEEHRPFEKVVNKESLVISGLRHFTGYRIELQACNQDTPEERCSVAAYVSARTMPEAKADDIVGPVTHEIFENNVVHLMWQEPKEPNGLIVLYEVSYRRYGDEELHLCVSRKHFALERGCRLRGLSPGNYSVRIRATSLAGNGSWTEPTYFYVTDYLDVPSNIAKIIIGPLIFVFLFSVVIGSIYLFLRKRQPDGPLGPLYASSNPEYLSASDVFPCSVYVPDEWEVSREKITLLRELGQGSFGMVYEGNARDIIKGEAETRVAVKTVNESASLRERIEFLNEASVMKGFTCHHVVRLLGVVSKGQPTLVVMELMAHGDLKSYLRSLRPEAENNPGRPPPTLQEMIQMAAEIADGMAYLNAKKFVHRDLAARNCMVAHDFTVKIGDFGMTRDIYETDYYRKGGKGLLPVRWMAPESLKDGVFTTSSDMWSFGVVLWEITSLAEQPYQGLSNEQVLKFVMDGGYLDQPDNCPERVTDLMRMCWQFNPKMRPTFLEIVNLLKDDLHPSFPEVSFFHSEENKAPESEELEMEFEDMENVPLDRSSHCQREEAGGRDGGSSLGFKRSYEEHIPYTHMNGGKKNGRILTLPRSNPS
Procedure: as §1

[4] = target: 140 purified human kinases (Homo sapiens, UniProt P49760)
Sequence of 140 purified human kinases (Homo sapiens, UniProt P49760) (P49760 whole entry): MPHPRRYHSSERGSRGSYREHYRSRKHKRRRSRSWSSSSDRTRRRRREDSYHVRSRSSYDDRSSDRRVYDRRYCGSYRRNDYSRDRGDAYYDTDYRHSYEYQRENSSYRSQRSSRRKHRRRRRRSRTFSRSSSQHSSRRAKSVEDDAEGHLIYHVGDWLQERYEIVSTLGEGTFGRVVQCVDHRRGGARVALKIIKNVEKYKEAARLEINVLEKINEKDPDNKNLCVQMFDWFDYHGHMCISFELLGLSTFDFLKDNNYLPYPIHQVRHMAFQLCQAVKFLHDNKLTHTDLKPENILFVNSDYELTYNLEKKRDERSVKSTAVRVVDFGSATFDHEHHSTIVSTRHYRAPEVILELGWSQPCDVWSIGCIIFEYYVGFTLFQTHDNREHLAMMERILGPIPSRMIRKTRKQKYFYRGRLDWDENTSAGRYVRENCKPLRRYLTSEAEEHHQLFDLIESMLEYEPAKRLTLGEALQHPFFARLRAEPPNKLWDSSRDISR
Procedure: as §1

[5] = target: 140 purified human kinases (Homo sapiens, UniProt Q13131); details: AMPK (hum); for % Activity inhibition Mean / % Activity inhibition Run 1 / % Activity inhibition Run 2 / % Activity remaining Run 1 / % Activity remaining Run 2: 10 µM
Sequence of 140 purified human kinases (Homo sapiens, UniProt Q13131) (Q13131 whole entry): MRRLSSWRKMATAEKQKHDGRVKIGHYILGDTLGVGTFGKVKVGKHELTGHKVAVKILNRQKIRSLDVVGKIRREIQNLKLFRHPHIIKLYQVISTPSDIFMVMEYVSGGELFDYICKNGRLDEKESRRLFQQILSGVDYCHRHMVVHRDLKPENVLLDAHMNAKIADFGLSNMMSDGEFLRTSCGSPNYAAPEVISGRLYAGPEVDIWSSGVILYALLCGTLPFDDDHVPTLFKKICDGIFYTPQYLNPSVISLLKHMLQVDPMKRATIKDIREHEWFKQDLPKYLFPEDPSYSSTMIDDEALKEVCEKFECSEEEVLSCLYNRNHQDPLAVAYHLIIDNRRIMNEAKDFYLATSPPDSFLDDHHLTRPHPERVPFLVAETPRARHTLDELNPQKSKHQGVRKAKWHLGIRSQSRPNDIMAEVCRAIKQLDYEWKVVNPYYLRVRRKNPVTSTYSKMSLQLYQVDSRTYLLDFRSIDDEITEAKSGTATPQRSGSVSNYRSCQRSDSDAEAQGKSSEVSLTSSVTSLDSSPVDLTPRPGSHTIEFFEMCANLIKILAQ
Procedure: as §1

[6] = target: T2, 140 purified human kinases (Homo sapiens, UniProt Q9UKI8)
T2 sequence (Q9UKI8 1-766): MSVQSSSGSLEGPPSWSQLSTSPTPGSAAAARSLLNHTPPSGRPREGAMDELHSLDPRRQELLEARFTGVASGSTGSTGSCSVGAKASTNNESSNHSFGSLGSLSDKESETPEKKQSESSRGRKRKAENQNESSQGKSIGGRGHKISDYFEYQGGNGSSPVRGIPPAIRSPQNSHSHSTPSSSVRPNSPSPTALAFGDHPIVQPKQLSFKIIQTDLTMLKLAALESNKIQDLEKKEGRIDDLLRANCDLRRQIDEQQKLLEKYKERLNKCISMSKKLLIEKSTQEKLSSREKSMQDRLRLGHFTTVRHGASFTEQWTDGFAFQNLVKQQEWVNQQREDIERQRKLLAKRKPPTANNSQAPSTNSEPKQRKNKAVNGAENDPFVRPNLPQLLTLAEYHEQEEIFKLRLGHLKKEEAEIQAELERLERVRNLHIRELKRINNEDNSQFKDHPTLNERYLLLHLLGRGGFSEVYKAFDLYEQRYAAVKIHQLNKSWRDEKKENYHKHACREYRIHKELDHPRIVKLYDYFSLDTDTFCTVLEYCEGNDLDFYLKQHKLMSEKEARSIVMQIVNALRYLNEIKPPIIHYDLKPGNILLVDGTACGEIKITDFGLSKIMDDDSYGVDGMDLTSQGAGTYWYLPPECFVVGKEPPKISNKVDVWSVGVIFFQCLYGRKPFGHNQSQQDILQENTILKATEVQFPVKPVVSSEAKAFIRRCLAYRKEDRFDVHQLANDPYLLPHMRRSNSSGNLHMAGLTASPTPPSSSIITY
Procedure: as §1

In the case of `[Cu+2].[Cu+2].[Cu+2].c1ccc(-c2csc(NCCN(CCNc3nc(-c4ccccn4)cs3)CCNc3nc(-c4ccccn4)cs3)n2)nc1.c1ccc(-c2csc(NCCN(CCNc3nc(-c4ccccn4)cs3)CCNc3nc(-c4ccccn4)cs3)n2)nc1` [[L2Cu3]6+], the “% Inhibition Run 1” value ([1]; SIK2) is reported as 88.3%, the “% Inhibition Run 2” value ([1]; SIK2) is reported as 90.4% and the “% Inhibition, Mean” value ([1]; SIK2) is reported as 89%. For the same compound, the mean % activity ([1]; SIK2) was 11%, the “% activity” value ([1]; SIK2, Run 1) was 11.7% and the “% activity” value ([1]; SIK2, Run 2) was 9.6%. For the same compound, the “% Inhibition Run 1” value ([2]; MST2) was 38.8%, the “% Inhibition Run 2” value ([2]; MST2) was 41.9% and the “% Inhibition, Mean” value ([2]; MST2) was 40%. For the same compound, the mean % activity ([2]; MST2) was 60%, the “% activity” value ([2]; MST2, Run 1) was 61.2% and the “% activity” value ([2]; MST2, Run 2) was 58.1%. The “% Inhibition Run 1” value [3] was 20%, the “% Inhibition Run 2” value [3] was 18.1% and the “% Inhibition, Mean” value [3] was 19%. For the same compound, the mean % activity [3] was 81%, the “% activity” value ([3]; Run 1) was 80% and the “% activity” value ([3]; Run 2) was 81.9%. For the same compound, the “% Activation, Mean value” ([4]; CLK2) was 3%, the “% Inhibition Run 1” value ([4]; CLK2) was -9.8% and the “% Inhibition Run 2” value ([4]; CLK2) was 3.9%. For the same compound, the “% Inhibition, Mean” value ([4]; CLK2) was -3%, the mean % activity ([4]; CLK2) was 103% and the “% activity” value ([4]; CLK2, Run 1) was 109.8%. For the same compound, the “% activity” value ([4]; CLK2, Run 2) was 96.1%, the “% Inhibition Run 1” value [5] was 97.2% and the “% Inhibition Run 2” value [5] was 98.1%. For the same compound, the “% Inhibition, Mean” value [5] was 98%, the mean % activity [5] was 2.35% and the “% activity” value ([5]; Run 1) was 2.8%. For the same compound, the “% activity” value ([5]; Run 2) was 1.9%, the “% Activity inhibition Mean” value [5] was 97.7% and the “% Activity inhibition Run 1” value [5] was 97.2%. The “% Activity inhibition Run 2” value [5] was 98.1%, the “% Activity remaining Run 1” value [5] was 2.80% and the “% Activity remaining Run 2” value [5] was 1.90%. The “% Activation, Mean value” ([6]; TLK1) was 16%, the “% Inhibition Run 1” value ([6]; TLK1) was -7.2% and the “% Inhibition Run 2” value ([6]; TLK1) was -24.2%. The “% Inhibition, Mean” value ([6]; TLK1) was -16%, the mean % activity ([6]; TLK1) was 116% and the “% activity” value ([6]; TLK1, Run 1) was 107.2%. For the same compound, the “% activity” value ([6]; TLK1, Run 2) was 124.2%, the “% Activity Run 1” value ([6]; TLK1, 10 µM) was 107.20% and the “% Activity Run 2” value ([6]; TLK1, 10 µM) was 124.20%.
`CC(=O)[O-].CC(=O)[O-].CC(=O)[O-].CC(=O)[O-].CC(=O)[O-].CC(=O)[O-].[Zn+2].[Zn+2].[Zn+2].c1ccc(-c2csc(NCCN(CCNc3nc(-c4ccccn4)cs3)CCNc3nc(-c4ccccn4)cs3)n2)nc1.c1ccc(-c2csc(NCCN(CCNc3nc(-c4ccccn4)cs3)CCNc3nc(-c4ccccn4)cs3)n2)nc1` [[L2Zn3]6+] was tested, and the “% Inhibition, Mean” value ([1]; SIK2) was 68%, the “% Inhibition, Run 1 / Run 2” value ([1]; SIK2) was 72% and 64% and the mean % activity ([1]; SIK2) was 32%. For the same compound, the “% activity” value ([1]; SIK2, duplicate runs) was 29% and 36%, the “% Inhibition, Mean” value ([2]; MST2) was 10% and the “% Inhibition, Run 1 / Run 2” value ([2]; MST2) was 14% and 6%. For the same compound, the mean % activity ([2]; MST2) was 90%, the “% activity” value ([2]; MST2, duplicate runs) was 86% and 94% and the “% Inhibition, Mean” value [3] was 12%. The mean % activity [3] was 88%, the “% activity” value ([3]; duplicate runs) was 80% and 95% and the “% Inhibition, Mean” value ([4]; CLK2) was 44%. For the same compound, the “% Inhibition, Run 1 / Run 2” value ([4]; CLK2) was 43% and 45%, the mean % activity ([4]; CLK2) was 56% and the “% activity” value ([4]; CLK2, duplicate runs) was 57% and 55%. For the same compound, the “% Inhibition, Mean” value [5] was 93%, the “% Inhibition, Run 1 / Run 2” value [5] was 94% and 92% and the mean % activity [5] was 7%. The “% Activity inhibition Mean” value [5] was 93.0%, the “% Activity inhibition Run 1” value [5] was 94% and the “% Activity inhibition Run 2” value [5] was 92%. The “% Activity remaining Run 1” value [5] was 6%, the “% Activity remaining Run 2” value [5] was 8% and the “% activity” value ([5]; duplicate runs) was 6.4% and 8%. The “% Inhibition, Mean” value ([6]; TLK1) was -0.3%, the mean % activity ([6]; TLK1) was 100% and the “% activity” value ([6]; TLK1, duplicate runs) was 92% and 109%.
